{
  "source": "patent US5407954A",
  "about": "“Arylalkoxyphenoxy-imidazoline compounds” (Merrell Dow Pharmaceuticals Inc., priority 1994, dated 1995)",
  "key": {"[1]": {"target": "T1, cloned rat 5-HT2 receptor (Rattus norvegicus, UniProt P14842)", "T1 construct": "expressed in transfected cells; host or cells: NIH 3T3 fibroblasts, line 'GF-6'", "T1 sequence (P14842 whole entry)": "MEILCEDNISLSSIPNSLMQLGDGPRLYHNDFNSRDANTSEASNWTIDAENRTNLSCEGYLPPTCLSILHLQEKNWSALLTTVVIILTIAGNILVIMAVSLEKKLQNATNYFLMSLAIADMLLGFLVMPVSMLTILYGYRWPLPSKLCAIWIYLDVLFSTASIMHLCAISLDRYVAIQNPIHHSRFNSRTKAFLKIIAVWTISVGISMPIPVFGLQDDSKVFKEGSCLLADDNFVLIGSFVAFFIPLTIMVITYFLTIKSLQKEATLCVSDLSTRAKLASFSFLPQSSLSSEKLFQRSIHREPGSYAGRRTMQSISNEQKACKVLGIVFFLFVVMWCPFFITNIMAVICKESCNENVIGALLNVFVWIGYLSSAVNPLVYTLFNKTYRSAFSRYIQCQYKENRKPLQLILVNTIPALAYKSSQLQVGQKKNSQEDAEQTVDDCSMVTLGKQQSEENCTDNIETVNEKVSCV", "assay": "Affinity for 5-HT2 receptors on transfected fibroblast cell membranes ([125I]LSD competition binding, NIH 3T3 GF-6 cells)", "conditions": "NIH 3T3 GF-6 cell membranes, 37° C., 60 minutes, pH 7.6", "from_the_text": "Affinity for 5-HT2 receptor on transfected fibroblast cell membranes (partial agonist [^125 I]lysergic acid diethylamide; Elliott, M. J., Kent, A., J. Neurochem. 53: 191-196, 1989.; Peroutka, S. J., Snyder, S. H. , Molec. Pharmacol. 16: 687-699, 1979; Kadan, J. M., Krohn, A. M., Evans, M. J., Ualtz, R. L., Hartig, P. R.; J. Neurochem. 43: 601-606, 1984) is used to determine the potency of test compounds to compete with [^125 I]LSD binding to a NIH 3T3 cell line containing the cloned rat 5-HT2 receptor designated \"GF-6\" by its originators.[Julius, D., Huang, K. N., Livelli, T. J., Axel, R., and Jessell, T. M., Proc. Natl. Acad. Sci. USA 87:928-932, 1990]\nConfluent GF6 cell monolayers are dissociated in Versene and centrifuged at 1000 rpm for 5 minutes. The resulting pellet is homogenized in 10 volumes 0.32M sucrose using a Dounce glass homogenizer, 10 strokes. The suspension is centrifuged at 44,000×g for 15 minutes, and the pellet suspended in […] Hepes-KOH, pH 7.4, using a Polytron. The membranes are then stored at -80° C.\nThe assay tubes, in triplicate, receive 20 μl of 5 nM [^125 I]LSD, 20 μl of test compound (10^-9 M to 10^-5 M or 10 μM ketanserin for nonspecific binding), 40 μl of membrane suspension (1-5 μg protein/assay tube) in a final volume of 0.1 ml of 50 mM Tris- HCl, pH 7.6. Incubations are carried out at 37° C. for 60 minutes and terminated by addition of 2 ml ice-cold assay buffer end filtered through GF/B glass fiber filters (presoaked in 0.1% polyethyleneimine). Filters are washed twice with 5 ml of cold buffer and transferred to polystyrene tubes for radioactivity determination. Protein concentration was measured using the Bradford dye binding method.\nInhibition of [^125 I]LSD binding by a test compound is indicative of affinity for the 5HT2 receptor site. The molar concentration of a Compound which causes 50% inhibition of the binding of ligand is the IC50. The IC50 value is converted to the Ki value by the method of Cheng and Prusoff.[Cheng, Y. -C and Prusoff, Biochem. Pharmacol. 22:3099-3108, 1973]."}, "migraine headaches": {"system": "migraine headaches", "conditions": "in vivo; cited from earlier work"}, "migraine": {"system": "migraine", "conditions": "in vivo; cited from earlier work"}, "5-HT1C receptor": {"system": "5-HT1C receptor", "conditions": "albeit nonselective; cited from earlier work"}},
  "data": [
    {"smiles": "COc1ccc(CC(Oc2ccccc2OCc2ccccc2)C2=NCCN2)cc1", "note": "(stereo not drawn) [100,499, 2-[1-(2-benzyloxyphenoxy)-2-(4-methoxyphenyl)]ethylimidazoline]", "values": [
      {"measurement": "IC50", "setting": "[1]", "value": 3.5, "unit": "nM"}
    ]},
    {"smiles": "c1ccc(COc2ccccc2OC(Cc2ccccc2)C2=NCCN2)cc1", "note": "(stereo not drawn) [101,600, 2-[1-(2-benzyloxyphenoxy)-2-phenyl]ethylimidazoline]", "values": [
      {"measurement": "IC50", "setting": "[1]", "value": 2.5, "unit": "nM"}
    ]},
    {"smiles": "c1ccc(CCOc2ccccc2OC(Cc2ccccc2)C2=NCCN2)cc1", "note": "(stereo not drawn) [101,623, 2-(1-[2-(2-phenylethoxy)phenoxy]-2-phenyl)ethylimidazoline]", "values": [
      {"measurement": "IC50", "setting": "[1]", "value": 14, "unit": "nM"}
    ]},
    {"smiles": "c1ccc(CCCC(Oc2ccccc2OCc2ccccc2)C2=NCCN2)cc1", "note": "(stereo not drawn) [102,588, 2-[1-(2-benzyloxyphenoxy)-4-phenyl]butylimidazoline]", "values": [
      {"measurement": "IC50", "setting": "[1]", "value": 167, "unit": "nM"}
    ]},
    {"smiles": "Clc1cccc(N2CCNCC2)c1", "note": "[m-chlorophenylpiperazine]", "values": [
      {"measurement": "inducing migraine headaches", "setting": "migraine headaches", "value": "capable of inducing migraine headaches"}
    ]},
    {"smiles": "CC[C@@H](CO)NC(=O)[C@@H]1C=C2c3cccc4c3c(cn4C)C[C@H]2N(C)C1", "note": "[methysergide]", "values": [
      {"measurement": "migraine prophylactic effectiveness", "setting": "migraine", "value": "well established as effective migraine prophylactic agents"},
      {"measurement": "5-HT1C receptor antagonist activities", "setting": "5-HT1C receptor", "value": "potent 5-HT1C receptor antagonist activities (albeit nonselective)"}
    ]},
    {"smiles": "CN1CCC(=C2c3ccccc3CCc3sccc32)CC1", "note": "[pizotifen]", "values": [
      {"measurement": "migraine prophylactic effectiveness", "setting": "migraine", "value": "well established as effective migraine prophylactic agents"},
      {"measurement": "5-HT1C receptor antagonist activities", "setting": "5-HT1C receptor", "value": "potent 5-HT1C receptor antagonist activities (albeit nonselective)"}
    ]}
  ]
}
